This is an account of results in patent US20150191469A1, “COMPOUNDS AND METHODS FOR TREATING HIV” (priority 2012, published 2015).

This assay deals with HIV. The assay can be described thus: MT4 assay: antiviral HIV activity (cell protection, cell titer glo readout at 96 hours). It counts as cell-based. To be noted: Human immunodeficiency virus 1, MT4, 96 h, MT4 cells, cell titer glo readout at 96 hours, 10 point dose response; read-out: HIV MT4 Assay IC50. In a few lines:
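MT-4 cells infected with HIV, with inhibition readout by CellTiter-Glo luminescence at 96 h relative to no-compound control. Cytotoxicity measured in parallel under the same conditions. IC50 from a 10-point, 3-4-fold dilution series spanning >1000-fold, fitted with a four-parameter logistic equation.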
(In general: ATP-based viability assays read luminescence as a measure of living cells.)
Broadly, the IC50 is the concentration that inhibits the measured activity by half. As for `Cc1nc2c(cc(CCc3ccccc3)n2C)c(-c2cc(F)c3c(c2C)CCCO3)c1[C@H](OC(C)(C)C)C(=O)O` (atropisomer, axis not shown; (M)) [Example 282, (2S)(M)-2-(tert-butoxy)-2-(-4-(8-fluoro-5-methylchroman-6-yl)-1,6-dimethyl-2-phenethyl-1H-pyrrolo[2,3-b]pyridin-5-yl)acetic acid], the IC50 came out at 56.8 nM.
To `Cc1nc2c(cc(CN3CCCCC3)n2C)c(-c2cc(F)c3c(c2C)CCCO3)c1[C@H](OC(C)(C)C)C(=O)O` (atropisomer, axis not shown; (M)) [Example 288, (2S)(M)-2-(tert-butoxy)-2-(-4-(8-fluoro-5-methylchroman-6-yl)-1,6-dimethyl-2-(piperidin-1-ylmethyl)-1H-pyrrolo[2,3-b]pyridin-5-yl)acetic acid] belongs 250 nM; to `Cc1nc2c(cc(CCC(=O)NCc3ccc(F)cc3)n2C)c(-c2cc(F)c3c(c2C)CCCO3)c1[C@H](OC(C)(C)C)C(=O)O` (atropisomer, axis not shown; (M)) [Example 297, (2S)(M) 2-(tert-butoxy)-2-((R)-4-(8-fluoro-5-methylchroman-6-yl)-2-(3-((4-fluorobenzyl)amino)-3-oxopropyl)-1,6-dimethyl-1H-pyrrolo[2,3-b]pyridin-5-yl)acetic acid], 130 nM; to `Cc1nc2c(cc(-c3nnc(N4CCN(C5CCOCC5)CC4)o3)n2C)c(-c2cc(F)c3c(c2C)CCCO3)c1[C@H](OC(C)(C)C)C(=O)O` (atropisomer, axis not shown; (M)) [Example 300, (2S)(M)-2-(tert-butoxy)-2-(-4-(8-fluoro-5-methylchroman-6-yl)-1,6-dimethyl-2-(5-(4-(tetrahydro-2H-pyran-4-yl)piperazin-1-yl)-1,3,4-oxadiazol-2-yl)-1H-pyrrolo[2,3-b]pyridin-5-yl)acetic acid], 10.4 nM.
To `Cc1nc2c(cc(-c3nc(-c4ccc5c(cnn5C)c4)no3)n2C)c(-c2cc(F)c3c(c2C)CCCO3)c1[C@H](OC(C)(C)C)C(=O)O` (atropisomer, axis not shown; (M)) [Example 354, (2S)(M)-2-(tert-butoxy)-2-(4-(8-fluoro-5-methylchroman-6-yl)-1,6-dimethyl-2-(3-(1-methyl-1H-indazol-5-yl)-1,2,4-oxadiazol-5-yl)-1H-pyrrolo[2,3-b]pyridin-5-yl)acetic acid] belongs 5 nM.
To `Cc1nc2c(cc(-c3nc(-c4ccc5c(cnn5C)c4)ns3)n2C)c(-c2cc(F)c3c(c2C)CCCO3)c1[C@H](OC(C)(C)C)C(=O)O` (atropisomer, axis not shown; (M)) [Example 355, (2S)(M)-2-(tert-butoxy)-2-(-4-(8-fluoro-5-methylchroman-6-yl)-1,6-dimethyl-2-(3-(1-methyl-1H-indazol-5-yl)-1,2,4-thiadiazol-5-yl)-1H-pyrrolo[2,3-b]pyridin-5-yl)acetic acid] belongs 4.7 nM; to `Cc1nc2c(cc(-c3nnc(-c4ccc5c(cnn5C)c4)s3)n2C)c(-c2cc(F)c3c(c2C)CCCO3)c1[C@H](OC(C)(C)C)C(=O)O` (atropisomer, axis not shown; (M)) [Example 356, (2S)(M)-2-(tert-butoxy)-2-(-4-(8-fluoro-5-methylchroman-6-yl)-1,6-dimethyl-2-(5-(1-methyl-1H-indazol-5-yl)-1,3,4-thiadiazol-2-yl)-1H-pyrrolo[2,3-b]pyridin-5-yl)acetic acid], 9.8 nM; to `Cc1nc2c(cc(-c3nsc(-c4ccc5c(cnn5C)c4)n3)n2C)c(-c2cc(F)c3c(c2C)CCCO3)c1[C@H](OC(C)(C)C)C(=O)O` (atropisomer, axis not shown; (M)) [Example 357, (2S)(M)-2-(tert-butoxy)-2-(-4-(8-fluoro-5-methylchroman-6-yl)-1,6-dimethyl-2-(5-(1-methyl-1H-indazol-5-yl)-1,2,4-thiadiazol-3-yl)-1H-pyrrolo[2,3-b]pyridin-5-yl)acetic acid], 4 nM.
On to `Cc1nc2c(cc(-c3nccc(N4CCN(C5CCOCC5)CC4)n3)n2C)c(-c2cc(F)c3c(c2C)CCCO3)c1[C@H](OC(C)(C)C)C(=O)O` (atropisomer, axis not shown; (M)) [Example 358], for which the IC50 stood at 17.6 nM.
To `Cc1nc2c(cc(-c3nc(N4C[C@@H](C)O[C@@H](C)C4)no3)n2C)c(-c2cc(F)c3c(c2C)CCCO3)c1[C@H](OC(C)(C)C)C(=O)O` (atropisomer, axis not shown; (M)) [Example 410, (2S)(M)-2-(tert-butoxy)-2-(-2-(3-((2S,6R)-2,6-dimethylmorpholino)-1,2,4-oxadiazol-5-yl)-4-(8-fluoro-5-methylchroman-6-yl)-1,6-dimethyl-1H-pyrrolo[2,3-b]pyridin-5-yl)acetic acid] belongs 3.1 nM; to `Cc1nc2c(cc(-c3noc(N4CCC(C)CC4)n3)n2C)c(-c2cc(F)c3c(c2C)CCCO3)c1[C@H](OC(C)(C)C)C(=O)O` (atropisomer, axis not shown; (M)) [Example 411, (2S)(M)-2-(tert-butoxy)-2-(-4-(8-fluoro-5-methylchroman-6-yl)-1,6-dimethyl-2-(5-(4-methylpiperidin-1-yl)-1,2,4-oxadiazol-3-yl)-1H-pyrrolo[2,3-b]pyridin-5-yl)acetic acid], 7.6 nM.
Consider `Cc1nc2c(cc(CNC(=O)c3ccc4c(cnn4C)c3)n2C)c(-c2cc(F)c3c(c2C)CCCO3)c1[C@H](OC(C)(C)C)C(=O)O` (atropisomer, axis not shown; (M)) [Example 412, (2S)(M)-2-(tert-butoxy)-2-(-4-(8-fluoro-5-methylchroman-6-yl)-1,6-dimethyl-2-((1-methyl-1H-indazole-5-carboxamido)methyl)-1H-pyrrolo[2,3-b]pyridin-5-yl)acetic acid], for which the 50% inhibitory concentration (IC50) is 43.1 nM.
To `COCCNC(=O)/C=C/c1cc2c(-c3cc(F)c4c(c3C)CCCO4)c([C@H](OC(C)(C)C)C(=O)O)c(C)nc2n1C` (atropisomer, axis not shown; (M)) [Example 413, (2S)(M)-2-(tert-butoxy)-2-(-4-(8-fluoro-5-methylchroman-6-yl)-2-((E)-3-((2-methoxyethyl)amino)-3-oxoprop-1-en-1-yl)-1,6-dimethyl-1H-pyrrolo[2,3-b]pyridin-5-yl)acetic acid] belongs 148 nM; to `Cc1nc2c(cc(C(=O)C(=O)NCc3ccccc3)n2C)c(-c2cc(F)c3c(c2C)CCCO3)c1[C@H](OC(C)(C)C)C(=O)O` (atropisomer, axis not shown; (M)) [Example 420, (2S)(M)-2-(-2-(2-(benzylamino)-2-oxoacetyl)-4-(8-fluoro-5-methylchroman-6-yl)-1,6-dimethyl-1H-pyrrolo[2,3-b]pyridin-5-yl)-2-(tert-butoxy)acetic acid], 94.6 nM; to `Cc1nc2c(cc(-c3nnc(N4C[C@@H](C)O[C@@H](C)C4)o3)n2C)c(-c2cc(F)c3c(c2C)CCCO3)c1[C@H](OC(C)(C)C)C(=O)O` (racemic) [Example 338], 1.6 nM.
To `Cc1nc2c(cc(-c3cc(N4C[C@@H](C)O[C@@H](C)C4)ncn3)n2C)c(-c2cc(F)c3c(c2C)CCCO3)c1[C@H](OC(C)(C)C)C(=O)O` (racemic) [Example 364] belongs 10.9 nM; to `Cc1nc2c(cc(-c3nc(N4C[C@@H](C)N[C@@H](C)C4)ns3)n2C)c(-c2cc(F)c3c(c2C)CCCO3)c1[C@H](OC(C)(C)C)C(=O)O` (racemic) [Example 397], 13.1 nM; to `Cc1nc2c(cc(-c3csc(N4C[C@@H](C)O[C@@H](C)C4)n3)n2C)c(-c2cc(F)c3c(c2C)CCCO3)c1[C@H](OC(C)(C)C)C(=O)O` (racemic) [Example 409], 13.4 nM.
To `Cc1nc2c(cc(-c3ccnc(N4CC(N5CCOCC5)C4)c3)n2C)c(-c2cc(F)c3c(c2C)CCCO3)c1[C@H](OC(C)(C)C)C(=O)O` [Example 2, (2S)-2-(tert-butoxy)-2-[4-(8-fluoro-5-methyl-3,4-dihydro-2H-1-benzopyran-6-yl)-1,6-dimethyl-2-{2-[3-(morpholin-4-yl)azetidin-1-yl]pyridin-4-yl}-1H-pyrrolo[2,3-b]pyridin-5-yl]acetic acid] belongs 15.6 nM; to `Cc1nc2c(cc(-c3ccnc(-c4ccc5c(cnn5C)c4)c3)n2C)c(-c2ccc(Cl)cc2)c1[C@H](OC(C)(C)C)C(=O)O` [Example 15, (2S)-2-(tert-butoxy)-2-[4-(4-chlorophenyl)-1,6-dimethyl-2-[2-(1-methyl-1H-indazol-5-yl)pyridin-4-yl]-1H-pyrrolo[2,3-b]pyridin-5-yl]acetic acid], 13.7 nM; to `CCCn1cc(-c2cc(-c3cc4c(-c5cc(F)c6c(c5C)CCCO6)c([C@H](OC(C)(C)C)C(=O)O)c(C)nc4n3C)ccn2)cn1` [Example 44], 14 nM.
On to `Cc1nc2c(cc(-c3ccnc(-c4ccc5c(c4)ncn5C)c3)n2C)c(-c2cc(F)c3c(c2C)CCCO3)c1[C@H](OC(C)(C)C)C(=O)O` [Example 51], for which the IC50 was determined as 4 nM.
To `Cc1nc2c(cc(-c3ccnc(-c4ccc5nn(C)nc5c4)c3)n2C)c(-c2cc(F)c3c(c2C)CCCO3)c1[C@H](OC(C)(C)C)C(=O)O` [Example 61] belongs 2.6 nM; to `Cc1nc2c(cc(-c3ccnc(-c4ccc5nn(C6COC6)cc5c4)c3)n2C)c(-c2cc(F)c3c(c2C)CCCO3)c1[C@H](OC(C)(C)C)C(=O)O` [Example 64], 2.8 nM; to `Cc1nc2c(cc(-c3ccnc(-c4ccc5c(cnn5C5COC5)c4)c3)n2C)c(-c2cc(F)c3c(c2C)CCCO3)c1[C@H](OC(C)(C)C)C(=O)O` [Example 65], 2.4 nM.
To `Cc1nc2c(cc(-c3cccc(-c4ccc5c(cnn5C)c4)n3)n2C)c(-c2cc(F)c3c(c2C)CCCO3)c1[C@H](OC(C)(C)C)C(=O)O` [Example 71] belongs 23.4 nM; to `Cc1cc(COc2cc(-c3cc4c(-c5cc(F)c6c(c5C)CCCO6)c([C@H](OC(C)(C)C)C(=O)O)c(C)nc4n3C)ccn2)ccn1` [Example 73], 3.8 nM; to `Cc1nc2c(cc(-c3ccnc(CNc4ncc(F)cn4)c3)n2C)c(-c2cc(F)c3c(c2C)CCCO3)c1[C@H](OC(C)(C)C)C(=O)O` [Example 74], 56.5 nM.
